Test results: patent publication US9611501B2, “Method and device for rapid detection of bacterial antibiotic resistance/susceptibility” (priority 2009, dated 2017)
Converted amounts (≈) assume the structure as drawn.

What was measured:
MSSA (Sanger 476) = test: Oxacillin MIC quoted for the flow cell experiment; assay type: cell-based; details: Staphylococcus aureus
MRSA (MW2) = test: Oxacillin MIC quoted for the flow cell experiment; assay type: cell-based; details: Staphylococcus aureus
[1] = system: MSSA (Sanger 476) and MRSA (MW2) strains; test: Single-channel flow cell, immobilized cells under shear and lysostaphin stress with oxacillin, Sytox green staining; assay type: cell-based, Staphylococcus aureus; details: 10 μg/mL oxacillin, 0.6 ng/mL lysostaphin, ~4200 s^-1 shear rate for 15 mins after 40 min pretreatment with lysostaphin and shear; 0.5 μM Sytox green
Procedure: The Staphylococcus aureus (MRSA strain MW2 and MSSA strain Sanger 476) were grown to log phase in Mueller-Hinton broth with 2% sodium chloride (MH2) and then immobilized on epoxide slides, which is a non-specific method for immobilizing bacteria and can be used instead of the adhesin mechanism. To immobilize the bacteria, 100 μL of culture was placed on the epoxide slide (Super-epoxy II, Telechem International) and incubated at 37° C. for 45 min in a humid environment. The immobilized cells were briefly rinsed with water and Block-it buffer (Telechem International) to quench any remaining un-reacted epoxide bonds.
On two separate slides, MSSA (Sanger 476) and MRSA (MW2) strains were immobilized. The cells were assembled in channels of ˜300 μm width and stained with 0.5 μM Sytox green in MH2. The immobilized cells were stressed with 0.6 ng/mL lysostaphin, ˜4200 s^−1 shear rate, and 10 μg/mL oxacillin for 15 mins after a 40 min pretreatment with lysostaphin and shear alone. The lysostaphin concentration was chosen to be lower than the MIC (˜1 ng/mL).

[2] = system: MW2 methicillin resistant cells; test: 4-channel flow cell, Sytox Green fluorescence of immobilized cells; assay type: cell-based, Staphylococcus aureus; details: oxacillin 50 μg/mL or lysostaphin 0.7 ng/mL alone, flow rate 1 mL/min, 0.5 μM Sytox Green
Procedure: (§1) This 4-channel arrangement was used to test a single strain of bacteria in the presence or absence of chemical stress (e.g., lysostaphin). The flow rate used in the channels was 1 mL/min and 0.5 μM Sytox Green was used to stain damaged or dying cells.
(§2) In each experiment, bacteria in two channels were exposed to 0.7 ng/mL lysostaphin (lyso) in the presence or absence of the antibiotic oxacillin (oxa; 50 μg/mL). The four experimental groups are as follows: (i) control (no oxa; no lyso), (ii) lyso only; (iii) oxa only, and (iv) lyso and oxa together.

[3] = system: Sanger 476 methicillin sensitive cells; test: as above; assay type: cell-based, Staphylococcus aureus; details: flow rate 1 mL/min, 0.5 μM Sytox Green
Procedure: as §1, §2

strain MW2 = test: Classical microdilution broth MIC of lysostaphin; assay type: cell-based, Staphylococcus aureus; details: MHB, 5×10^5 CFU/mL, overnight incubation at 37° C.
Source text: (§3) A classical microdilution broth method was used to determine the lysostaphin minimum inhibitory concentrations for strains MW2 and Sanger 476 (Jones, R. N., et al. Manual of clinical microbiology, A. Balows, J. W. J. Hausler, and H. J. Shadomy, Editors. 1985, American Society for Microbiology: Washington D.C. p. 972-977). Briefly, logarithmic-phase bacteria were cultivated in Mueller-Hinton cation-adjusted broth (MHB) and adjusted to a concentration of 1×10^6 CFU/mL. Sterile microtiter plates containing 100 μl of lysostaphin diluted in MHB were inoculated with 100 μl of the bacterial suspension to yield 5×10^5 CFU/mL. After overnight incubation at 37° C. overnight, the MIC for both strains was 0.06 μg/mL.

strain Sanger 476 = test: Classical microdilution broth MIC of lysostaphin; assay type: cell-based, Staphylococcus aureus; details: MHB, 5×10^5 CFU/mL, overnight incubation at 37° C.
Source text: as §3

Staphylococcus aureus = test: Lysostaphin MIC quoted for the flow cell experiment; assay type: cell-based; details: strain not stated; quoted to justify 0.6 ng/mL lysostaphin

Compound	MIC (MSSA (Sanger 476)) [µg/mL]	MIC (MRSA (MW2)) [µg/mL]	cell death, MSSA compared with MRSA [1]	fluorescence compared to control MW2 cells [2]	time point at which fluorescence was increased ([3]; oxacillin 50 μg/mL with or without 0.7 ng/mL lysostaphin)	minimum inhibitory concentration (MIC) (strain MW2) [µg/mL]	minimum inhibitory concentration (MIC) (strain Sanger 476) [µg/mL]	MIC (Staphylococcus aureus) [µg/mL]	level of fluorescence compared with the control channel ([3]; 0.7 ng/mL lysostaphin)
Cc1onc(-c2ccccc2)c1C(=O)N[C@@H]1C(=O)N2[C@@H]1SC(C)(C)[C@@H]2C(=O)O [oxacillin]	0.5 (≈ 1.25 µM)	> 16	More MSSA cells died during the course of the experiment than MRSA cells	no substantial increase	approximately 20 min	–	–	–	–
lysostaphin	–	–	–	small increase	–	0.06	0.06	~0.001	not substantially different
